Source: US4720543A, “1a-7-substituted derivatives of mitomycin and uses thereof” (priority 1985, dated 1988)

Tests used:
Klebsiella Pneumonia = experiment: antibiotic activity, bacterial growth inhibition in culture; assay type: cell-based
Experimental: (§1) Bacteria were grown in a standard growth culture at pH 7.2. After the cultures were incubated at 37° C. overnight and diluted into fresh medium, controls and the test antibiotics dissolved in 0.3% hydroxy propylcellulose (HPC) were added at various concentrations and then reincubated overnight. The measure of antibiotic activity was determined by the amount of bacterial growth inhibition as shown by measurement of the optical density at 660 nm.

WP2s (E. coli) = experiment: as above; assay type: cell-based
Experimental: as §1

Staphylococcus Sp. = experiment: as above; assay type: cell-based
Experimental: as §1

Pseudomonas Sp. = experiment: as above; assay type: cell-based
Experimental: as §1

Listeria Sp. = experiment: as above; assay type: cell-based
Experimental: as §1

Ehrlich ascites = experiment: murine Ehrlich ascites antitumor activity; assay type: in vivo
Experimental: The antitumor activity of M-TAG for the murine Ehrlich ascities tumor was also determined. Ehrlich ascites was maintained i.p. in female BALB/C mice. For antitumor studies, 1×10^7 Ehrlich ascites cells (in 0.10 ml) were implanted i.p. in male BD2F1 mice. Drug was administered i.p. (single LD10 dose) one day after tumor implantation.

What does the source list for `CO[C@@]12[C@H](COC(N)=O)C3=C(C(=O)C(C)=C(N)C3=O)N1C[C@H]1[C@@H]2N1C(=S)N[C@@H]1O[C@H](COC(C)=O)[C@@H](OC(C)=O)[C@H](OC(C)=O)[C@H]1NC(C)=O` [M-TAG, 1a(N-2-acetamido-3,4,6-tri-O-acetyl-2-deoxy-D-glucopyranosylthiocarbamoyl)-mitomycin C]?
optical density at 660 nm (figure in parentheses) (Klebsiella Pneumonia; 4.0 mcg/ml): 0.59; optical density at 660 nm (figure in parentheses) (Klebsiella Pneumonia; 40 mcg/ml): 0.40; optical density at 660 nm (figure in parentheses) (Klebsiella Pneumonia; 400 mcg/ml): 0.04; inhibition at 0.04 µg/mL (Klebsiella Pneumonia; Klebsiella pneumoniae, 0.04 mcg/ml, 37° C. overnight, read-out: amount of bacterial growth inhibition (first figure)): 22%; inhibition at 0.4 µg/mL (Klebsiella Pneumonia; Klebsiella pneumoniae, 0.4 mcg/ml, 37° C. overnight, read-out: amount of bacterial growth inhibition (first figure)): 24%; inhibition at 4 µg/mL (Klebsiella Pneumonia; Klebsiella pneumoniae, 4.0 mcg/ml, 37° C. overnight, read-out: amount of bacterial growth inhibition (first figure)): 26%; inhibition at 40 µg/mL (Klebsiella Pneumonia; Klebsiella pneumoniae, 40 mcg/ml, 37° C. overnight, read-out: amount of bacterial growth inhibition (first figure)): 40%; inhibition at 400 µg/mL (Klebsiella Pneumonia; Klebsiella pneumoniae, 400 mcg/ml, 37° C. overnight, read-out: amount of bacterial growth inhibition (first figure)): 92%; optical density at 660 nm (figure in parentheses) (WP2s (E. coli); 0.04 mcg/ml): 0.41; optical density at 660 nm (figure in parentheses) (WP2s (E. coli); 0.4 mcg/ml): 0.29; optical density at 660 nm (figure in parentheses) (WP2s (E. coli); 4.0 mcg/ml): 0.30; optical density at 660 nm (figure in parentheses) (WP2s (E. coli); 40 mcg/ml): 0.12; optical density at 660 nm (figure in parentheses) (WP2s (E. coli); 400 mcg/ml): 0.009; inhibition at 0.04 µg/mL (WP2s (E. coli); Escherichia coli, 0.04 mcg/ml, 37° C. overnight, read-out: amount of bacterial growth inhibition (first figure)): 39%; inhibition at 0.4 µg/mL (WP2s (E. coli); Escherichia coli, 0.4 mcg/ml, 37° C. overnight, read-out: amount of bacterial growth inhibition (first figure)): 51%; inhibition at 4 µg/mL (WP2s (E. coli); Escherichia coli, 4.0 mcg/ml, 37° C. overnight, read-out: amount of bacterial growth inhibition (first figure)): 50%; inhibition at 40 µg/mL (WP2s (E. coli); Escherichia coli, 40 mcg/ml, 37° C. overnight, read-out: amount of bacterial growth inhibition (first figure)): 76%; inhibition at 400 µg/mL (WP2s (E. coli); Escherichia coli, 400 mcg/ml, 37° C. overnight, read-out: amount of bacterial growth inhibition (first figure)): 98%; optical density at 660 nm (figure in parentheses) (Staphylococcus Sp.; 0.04 mcg/ml): 0.52; optical density at 660 nm (figure in parentheses) (Staphylococcus Sp.; 0.4 mcg/ml): 0.02; optical density at 660 nm (figure in parentheses) (Staphylococcus Sp.; 4.0 mcg/ml): 0.018; optical density at 660 nm (figure in parentheses) (Staphylococcus Sp.; 40 mcg/ml): 0.03; optical density at 660 nm (figure in parentheses) (Staphylococcus Sp.; 400 mcg/ml): 0.00; inhibition at 0.04 µg/mL (Staphylococcus Sp.; Staphylococcus, 0.04 mcg/ml, 37° C. overnight, read-out: amount of bacterial growth inhibition (first figure)): 30%; inhibition at 0.4 µg/mL (Staphylococcus Sp.; Staphylococcus, 0.4 mcg/ml, 37° C. overnight, read-out: amount of bacterial growth inhibition (first figure)): 95%; inhibition at 4 µg/mL (Staphylococcus Sp.; Staphylococcus, 4.0 mcg/ml, 37° C. overnight, read-out: amount of bacterial growth inhibition (first figure)): 96%; inhibition at 40 µg/mL (Staphylococcus Sp.; Staphylococcus, 40 mcg/ml, 37° C. overnight, read-out: amount of bacterial growth inhibition (first figure)): 94%; inhibition at 400 µg/mL (Staphylococcus Sp.; Staphylococcus, 400 mcg/ml, 37° C. overnight, read-out: amount of bacterial growth inhibition (first figure)): 100%; optical density at 660 nm (figure in parentheses) (Pseudomonas Sp.; 0.04 mcg/ml): 0.52; optical density at 660 nm (figure in parentheses) (Pseudomonas Sp.; 0.4 mcg/ml): 0.35; optical density at 660 nm (figure in parentheses) (Pseudomonas Sp.; 4.0 mcg/ml): 0.13; optical density at 660 nm (figure in parentheses) (Pseudomonas Sp.; 40 mcg/ml): 0.11; optical density at 660 nm (figure in parentheses) (Pseudomonas Sp.; 400 mcg/ml): 0.11; inhibition at 0.04 µg/mL (Pseudomonas Sp.; Pseudomonas, 0.04 mcg/ml, 37° C. overnight, read-out: amount of bacterial growth inhibition (first figure)): 30%; inhibition at 0.4 µg/mL (Pseudomonas Sp.; Pseudomonas, 0.4 mcg/ml, 37° C. overnight, read-out: amount of bacterial growth inhibition (first figure)): 45%; inhibition at 4 µg/mL (Pseudomonas Sp.; Pseudomonas, 4.0 mcg/ml, 37° C. overnight, read-out: amount of bacterial growth inhibition (first figure)): 75%; inhibition at 40 µg/mL (Pseudomonas Sp.; Pseudomonas, 40 mcg/ml, 37° C. overnight, read-out: amount of bacterial growth inhibition (first figure)): 75%; inhibition at 400 µg/mL (Pseudomonas Sp.; Pseudomonas, 400 mcg/ml, 37° C. overnight, read-out: amount of bacterial growth inhibition (first figure)): 78%; optical density at 660 nm (figure in parentheses) (Listeria Sp.; 0.04 mcg/ml): 0.59; optical density at 660 nm (figure in parentheses) (Listeria Sp.; 0.4 mcg/ml): 0.59; optical density at 660 nm (figure in parentheses) (Listeria Sp.; 4.0 mcg/ml): 0.59; optical density at 660 nm (figure in parentheses) (Listeria Sp.; 40 mcg/ml): 0.036; optical density at 660 nm (figure in parentheses) (Listeria Sp.; 400 mcg/ml): 0.00; inhibition at 0.04 µg/mL (Listeria Sp.; Listeria, 0.04 mcg/ml, 37° C. overnight, read-out: amount of bacterial growth inhibition (first figure)): 26%; inhibition at 0.4 µg/mL (Listeria Sp.; Listeria, 0.4 mcg/ml, 37° C. overnight, read-out: amount of bacterial growth inhibition (first figure)): 26%; inhibition at 4 µg/mL (Listeria Sp.; Listeria, 4.0 mcg/ml, 37° C. overnight, read-out: amount of bacterial growth inhibition (first figure)): 26%; inhibition at 40 µg/mL (Listeria Sp.; Listeria, 40 mcg/ml, 37° C. overnight, read-out: amount of bacterial growth inhibition (first figure)): 92%; inhibition at 400 µg/mL (Listeria Sp.; Listeria, 400 mcg/ml, 37° C. overnight, read-out: amount of bacterial growth inhibition (first figure)): 100%; antitumor activity against murine Ehrlich ascites (in words) (Ehrlich ascites; mouse, in vivo): significant antitumor activity; % ILS (Ehrlich ascites; single approximate LD10 dose i.p. (M-TAG 250 mg/kg; mitomycin C 4 mg/kg), one day after implantation): 66%; Mean Survival (Ehrlich ascites; single approximate LD10 dose i.p., 250 mg/kg): 22.8 days
